Assay results as given in ChEMBL document CHEMBL6115043, “Novel 5,6-Fused and 6,6-Fused Bicyclic Compounds as 15-Prostaglandin Dehydrogenase Modulators” (ACS Med Chem Lett, 2025).

Experiments:
[1] = molecular target: T1, 15-hydroxyprostaglandin dehydrogenase [NAD(+)] (Homo sapiens, UniProt P15428); test: Inhibition of 15-PGDH in human A549 cells assessed as increase in IL-1beta-stimulated PGE2 levels measured after 24 hrs by competitive HTRF assay; format: cell-based
T1 sequence (P15428 whole entry): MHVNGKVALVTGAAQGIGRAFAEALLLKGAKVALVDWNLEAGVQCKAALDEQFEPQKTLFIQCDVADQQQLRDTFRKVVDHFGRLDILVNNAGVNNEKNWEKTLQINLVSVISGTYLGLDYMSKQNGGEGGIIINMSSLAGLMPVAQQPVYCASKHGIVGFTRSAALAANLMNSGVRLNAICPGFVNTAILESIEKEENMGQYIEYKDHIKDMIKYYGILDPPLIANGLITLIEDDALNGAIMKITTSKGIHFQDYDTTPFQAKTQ

[2] = molecular target: T1, 15-hydroxyprostaglandin dehydrogenase [NAD(+)]; test: Inhibition of recombinant human 15-PGDH using PGE2 and beta-NAD+ as substrate preincubated for 15 mins followed by substrate addition and measured after 60 mins

Row | SMILES | IC50 [1] | IC50 [2]
1 | Cn1cc2cc(-c3ccc4cc([C@]5(O)C[C@@H](C(F)(F)F)C5)sc4n3)cnc2n1 | 0.05 nM | –
2 | Cn1cc2cc(-c3ccc4nc([C@H](O)C5CC(F)(F)C5)sc4n3)cnc2n1 | 0.05 nM | 0.22 nM
